Reference: BindingDB's records for doi:10.1021/jm0607451 (Wyeth Research, 2006)

What follows are compounds tested against Pepsin A-4 (Homo sapiens, UniProt P0DJD7) (assay: FRET-based Peptide Cleavage Assay). Conditions: pH 4.5; 22 °C.
Sequence of Pepsin A-4 (P0DJD7 whole entry): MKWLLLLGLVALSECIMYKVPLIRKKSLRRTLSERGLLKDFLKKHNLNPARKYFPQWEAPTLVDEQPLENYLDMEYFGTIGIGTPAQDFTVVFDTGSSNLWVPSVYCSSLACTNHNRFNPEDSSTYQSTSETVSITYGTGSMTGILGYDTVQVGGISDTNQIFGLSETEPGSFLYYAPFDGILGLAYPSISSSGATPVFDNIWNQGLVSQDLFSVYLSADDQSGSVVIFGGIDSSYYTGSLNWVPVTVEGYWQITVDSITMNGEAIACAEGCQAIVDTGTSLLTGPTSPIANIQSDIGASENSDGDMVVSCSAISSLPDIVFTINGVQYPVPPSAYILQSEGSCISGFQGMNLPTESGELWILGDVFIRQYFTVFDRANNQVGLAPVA

Row | Compound | IC50
1 | N/C(=N/C(=O)Cn1c(-c2ccccc2)ccc1C12CC3CC(CC(C3)C1)C2)NCCCO [2-[2-(adamantan-1-yl)-5-phenyl-1H-pyrrol-1-yl]-N-[(1Z)-amino[(3-hydroxypropyl)amino]methylidene]acetamide] | > 50 µM
2 | CC(=O)c1ccc(Oc2ccc(-c3ccc(-c4ccccc4Cl)n3CC(=O)NC(=N)N)cc2)cc1 [2-[2-(2-chlorophenyl)-5-[4-(4-acetylphenoxy)phenyl]-1H-pyrrol-1-yl]-N-(diaminomethylidene)acetamide] | > 50 µM
3 | CCCOc1ccc(-c2ccc(-c3ccccc3Cl)n2CC(=O)NC(=N)NCCCO)cc1 [N-[(1Z)-amino[(3-hydroxypropyl)amino]methylidene]-2-[2-(2-chlorophenyl)-5-(4-propoxyphenyl)-1H-pyrrol-1-yl]acetamide] | > 50 µM
4 | NC(N)=NC(=O)Cn1c(-c2ccccc2)ccc1C12CC3CC(CC(C3)C1)C2 [2-[2-(adamantan-1-yl)-5-phenyl-1H-pyrrol-1-yl]-N-(diaminomethylidene)acetamide] | > 50 µM
